Values joined by “and” are separate entries in the source; they are usually repeats but may differ in a detail not shown here. Equal entries are not always repeated.

Common to all, as to assay type: in vitro ADME
Data set [1] is described as follows: Permeability across Calu-3 monolayer. The conditions noted are these: human; Calu‐3 lung epithelial cells. How it is done: subtraction and plotted using GraphPad Prism 8.4.2 (GraphPad Software, San Diego, CA, […]
USA). Solubility (S) was determined based on the First X value of AUC function using a […]
For the evaluation of combined phase I and phase II metabolic stability, the compound (1 μM) was incubated with 1 mg/mL pooled liver S9 fraction from the respective species (Xenotech), […]
2 mM NADPH, 1 mM UDPGA, 10 mM MgCl2, 5 mM GSH and 0.1 mM PAPS at 37 °C for […]
0, 5, 15, 30 or 60 min. The metabolic stability of Testosterone (1 μM) and verapamil (1 μM) […]
were determined in parallel to confirm the enzymatic activity of the S9 fraction. The […]
incubation was stopped by precipitation of S9 enzymes with 2 volumes of cold acetonitrile […]
containing internal standard (750 nM Diphenhydramine). Samples were stored on ice for 10 […]
Concentration of the remaining test compound at the different time points was analyzed by […]
Permeability of compound 4 and 17 was assessed in vitro with Calu-3 HTB-55 cell line (ATCC). […]
Pyruvate. […] TEER was monitored during the experiment and epithelial barriers were considered compromised if the TEER fell below 300 during 4 h of experiment duration. […] 50 µL of sample was mixed with 150 µL of ice-cold acetonitrile containing internal standard diphenhydramine (1 µM) and the concentration of compound was analyzed with LC-MS/MS. […]

The target of another data set is T1, CYP1A (Homo sapiens, UniProt P05177).
T1 construct: Cyprotex (contract assay)
T1 sequence (P05177 2-516 limits assumed): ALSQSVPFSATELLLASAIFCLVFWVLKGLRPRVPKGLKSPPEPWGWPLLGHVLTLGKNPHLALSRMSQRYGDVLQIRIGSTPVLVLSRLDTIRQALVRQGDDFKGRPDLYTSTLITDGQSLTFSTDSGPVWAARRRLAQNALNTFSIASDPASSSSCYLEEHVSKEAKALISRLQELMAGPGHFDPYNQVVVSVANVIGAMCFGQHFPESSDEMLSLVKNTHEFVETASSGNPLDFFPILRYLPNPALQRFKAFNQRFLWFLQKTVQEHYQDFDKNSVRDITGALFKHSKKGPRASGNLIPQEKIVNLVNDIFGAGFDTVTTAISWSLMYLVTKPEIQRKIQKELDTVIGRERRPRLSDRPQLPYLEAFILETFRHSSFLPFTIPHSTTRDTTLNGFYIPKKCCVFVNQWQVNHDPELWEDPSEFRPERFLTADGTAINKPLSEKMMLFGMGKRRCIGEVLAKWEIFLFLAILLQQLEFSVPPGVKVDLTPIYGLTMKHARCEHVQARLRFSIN
Kind of data set: CYP inhibition (Cyprotex). As to conditions: read-out: CYP inhibition 1A. The protocol:
(§1) 5.2. CYP and hERG inhibition
(§2) Assessment of in vitro drug safety regarding Cytochrom P450 (CYP) inhibition and inhibiton of human ether-à-go-go related gene (hERG) channel with a functional (patch-clamp-based) assay were performed at Cyprotex. Detailed information about the assays can be found in: https://www.cyprotex.com/admepk/in-vitro-metabolism/cytochrome-p450-inhibition, and […]

The target in another data set is T2, CYP2C19 (Homo sapiens, UniProt P33261).
T2 construct: Cyprotex (contract assay)
T2 sequence (P33261 whole entry): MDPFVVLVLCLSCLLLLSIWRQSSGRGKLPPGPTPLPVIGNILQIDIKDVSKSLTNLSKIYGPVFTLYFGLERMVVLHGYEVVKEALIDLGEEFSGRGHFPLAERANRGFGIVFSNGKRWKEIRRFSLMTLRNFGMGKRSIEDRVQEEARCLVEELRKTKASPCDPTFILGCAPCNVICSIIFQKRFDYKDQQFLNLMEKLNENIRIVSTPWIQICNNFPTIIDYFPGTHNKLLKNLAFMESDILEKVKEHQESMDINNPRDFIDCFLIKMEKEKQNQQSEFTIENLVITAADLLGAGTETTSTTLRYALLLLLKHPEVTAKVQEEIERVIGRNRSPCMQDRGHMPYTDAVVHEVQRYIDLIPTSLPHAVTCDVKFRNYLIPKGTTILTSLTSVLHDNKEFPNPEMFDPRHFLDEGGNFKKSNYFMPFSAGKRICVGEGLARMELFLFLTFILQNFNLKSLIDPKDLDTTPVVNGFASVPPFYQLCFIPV
Kind of data set: CYP inhibition (Cyprotex). As to conditions: read-out: CYP inhibition 2C19. How it is done: as §1, §2

Another data set concerns the target T3, CYP2C9 (Homo sapiens, UniProt P11712).
T3 construct: Cyprotex (contract assay)
Description: CYP inhibition (Cyprotex). As to conditions: read-out: CYP inhibition 2C9. The protocol:
as §1, §2

Another data set deals with T4, CYP2D6 (Homo sapiens, UniProt P10635).
T4 construct: Cyprotex (contract assay)
T4 sequence (P10635 whole entry): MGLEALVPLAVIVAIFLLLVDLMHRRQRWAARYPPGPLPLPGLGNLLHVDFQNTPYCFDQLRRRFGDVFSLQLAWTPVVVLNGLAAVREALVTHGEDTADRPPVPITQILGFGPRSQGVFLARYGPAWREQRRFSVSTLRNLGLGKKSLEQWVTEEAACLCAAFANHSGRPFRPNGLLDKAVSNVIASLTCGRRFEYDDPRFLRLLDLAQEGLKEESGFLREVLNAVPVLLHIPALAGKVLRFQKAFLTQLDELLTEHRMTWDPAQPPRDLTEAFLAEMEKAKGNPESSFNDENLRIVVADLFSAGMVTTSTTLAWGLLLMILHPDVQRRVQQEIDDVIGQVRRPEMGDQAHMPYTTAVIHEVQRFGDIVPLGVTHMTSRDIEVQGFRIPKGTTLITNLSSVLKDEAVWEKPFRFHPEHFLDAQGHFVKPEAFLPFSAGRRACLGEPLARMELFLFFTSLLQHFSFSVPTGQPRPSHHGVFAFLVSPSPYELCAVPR
Kind of data set: CYP inhibition (Cyprotex). As to conditions: read-out: CYP inhibition 2D6. How it is done: as §1, §2

For a further data set, the target named is T5, CYP3A4 (Homo sapiens, UniProt P08684).
T5 construct: Cyprotex (contract assay)
T5 sequence (P08684 whole entry): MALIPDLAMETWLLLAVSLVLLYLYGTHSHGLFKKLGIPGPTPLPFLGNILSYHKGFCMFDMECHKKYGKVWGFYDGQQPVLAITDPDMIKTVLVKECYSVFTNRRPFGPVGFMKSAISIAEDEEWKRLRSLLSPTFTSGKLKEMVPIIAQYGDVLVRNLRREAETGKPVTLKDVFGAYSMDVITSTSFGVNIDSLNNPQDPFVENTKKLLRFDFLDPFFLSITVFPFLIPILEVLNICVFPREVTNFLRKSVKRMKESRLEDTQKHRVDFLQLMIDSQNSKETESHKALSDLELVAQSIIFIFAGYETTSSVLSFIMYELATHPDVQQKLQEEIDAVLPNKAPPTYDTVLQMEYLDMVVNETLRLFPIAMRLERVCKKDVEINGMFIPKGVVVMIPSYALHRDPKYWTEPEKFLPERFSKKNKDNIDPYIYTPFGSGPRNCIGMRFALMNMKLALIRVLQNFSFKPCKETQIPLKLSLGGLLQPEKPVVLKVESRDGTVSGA
Kind of data set: CYP inhibition (Cyprotex). The conditions noted are these: read-out: CYP inhibition 3A4. The protocol: as §1, §2

T3 sequence (P11712 whole entry): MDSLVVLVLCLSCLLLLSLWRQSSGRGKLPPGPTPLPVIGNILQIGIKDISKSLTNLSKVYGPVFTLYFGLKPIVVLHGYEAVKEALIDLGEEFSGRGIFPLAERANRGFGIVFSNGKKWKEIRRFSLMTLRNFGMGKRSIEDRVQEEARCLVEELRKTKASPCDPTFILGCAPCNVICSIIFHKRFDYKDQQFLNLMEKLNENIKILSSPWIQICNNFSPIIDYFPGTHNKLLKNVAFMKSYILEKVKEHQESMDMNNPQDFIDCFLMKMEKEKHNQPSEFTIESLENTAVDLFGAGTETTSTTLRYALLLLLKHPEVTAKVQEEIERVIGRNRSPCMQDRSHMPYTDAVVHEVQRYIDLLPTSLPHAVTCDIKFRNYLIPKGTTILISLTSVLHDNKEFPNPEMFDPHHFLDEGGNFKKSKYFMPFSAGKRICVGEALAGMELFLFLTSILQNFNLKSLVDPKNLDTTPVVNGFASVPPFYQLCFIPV

The term Papp denotes the rate of passage across a membrane or cell layer, normalised by area and donor concentration. Read a low Papp as slow passage. Consider `COc1ccc(-n2cc(CNc3ccnc(C(F)(F)F)c3)nn2)cc1Cl` [Compound 17], for which the Papp at 4 h in data set [1] was determined as 11.4 ×10⁻⁶ cm/s. The IC50 on CYP1A was 22.1 µM; at CYP2C19 it was 3.6 µM and 3.55 µM; at CYP2C9, greater than 25 µM; on CYP2D6 it was greater than 25 µM; on CYP3A4, greater than 25 µM.

Turning to `FC(F)(F)c1cc(NCc2cn(-c3ccc(Oc4ccccc4)cc3)nn2)ccn1` [Compound 4], the Papp at 4 h in data set [1] came out at 5.3 ×10⁻⁶ cm/s. Besides, the IC50 at CYP1A was greater than 25 µM; at CYP2C19, 20.3 µM; at CYP2C9, 16.4 µM; on CYP2D6, greater than 25 µM; at CYP3A4, 15 µM.

The values are drawn from paper PMC8224453, “A New PqsR Inverse Agonist Potentiates Tobramycin Efficacy to Eradicate Pseudomonas aeruginosa Biofilms” (Advanced Science, 2021).
